Type in all cases: cell-free
The target of assay [1] is Prostaglandin G/H synthase 1 (Homo sapiens) (UniProt P23219). Description: Inhibition of PGHS-1 in human platelet rich plasma assessed as inhibition of U46619-induced platelet aggregation in human platelet rich plasma at 1000 um.
For assay [2] the target is unchanged. Description: Ratio of compound IC50 to aspirin IC50 for PGHS-1 in human platelet rich plasma assessed as inhibition of arachidonic acid-induced platelet aggregation.
For assay [3] the target is unchanged. Briefly: Inhibition of PGHS-1 in human platelet rich plasma assessed as inhibition of arachidonic acid-induced platelet aggregation at 1000 um treated 5 min before arachidonic acid challenge by turbidimetry.

In ChEMBL document CHEMBL1153643, “Design, synthesis and evaluation of aspirin analogues having an additional carboxylate substituent for antithrombotic activity” (Bioorg Med Chem Lett, 2009) one finds Activity and Ratio IC50 data, which are given here for four compounds.

Activity calls are given as the source filed them. No cut-off for these calls is given here.

Sequence of Prostaglandin G/H synthase 1 (Homo sapiens) (P23219 whole entry): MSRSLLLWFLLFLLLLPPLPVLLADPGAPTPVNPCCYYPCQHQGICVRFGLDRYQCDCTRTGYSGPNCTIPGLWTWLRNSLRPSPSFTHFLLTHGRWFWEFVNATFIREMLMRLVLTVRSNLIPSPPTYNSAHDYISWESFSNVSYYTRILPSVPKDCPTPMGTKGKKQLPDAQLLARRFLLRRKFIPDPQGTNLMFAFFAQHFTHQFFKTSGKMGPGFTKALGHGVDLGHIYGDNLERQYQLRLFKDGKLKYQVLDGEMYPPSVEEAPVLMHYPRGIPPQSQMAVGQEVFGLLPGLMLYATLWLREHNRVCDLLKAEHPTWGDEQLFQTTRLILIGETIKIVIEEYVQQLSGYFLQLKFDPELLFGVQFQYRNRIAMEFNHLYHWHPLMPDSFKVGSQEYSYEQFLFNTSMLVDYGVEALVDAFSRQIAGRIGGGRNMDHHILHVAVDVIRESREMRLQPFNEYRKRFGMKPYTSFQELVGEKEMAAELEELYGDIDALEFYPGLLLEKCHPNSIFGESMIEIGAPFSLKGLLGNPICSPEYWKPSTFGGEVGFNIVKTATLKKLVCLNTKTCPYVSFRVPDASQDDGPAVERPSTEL

As for `COC(=O)CCCCc1cccc(C(=O)OC)c1OC(C)=O`, the outcome in assay [1] was inactive. Moreover, in assay [2], the Ratio IC50 was 15.

As to `CC(=O)Oc1c(C(=O)O)cccc1C(=O)CCCC(=O)O`, in assay [3], the result was inactive.

As to `CC(=O)Oc1c(CCCC(=O)O)cccc1C(=O)O`, the outcome in assay [3] was inactive.

For the compound `CC(=O)Oc1c(CCCCC(=O)O)cccc1C(=O)O`, in assay [3], the result was inactive.
